According to patent US20250295681A1, “CANDIDA ANTIFUNGAL COMPOSITION COMPRISING LIPOTEICHOIC ACID” (SEOUL NATIONAL UNIVERSITY R&DB FOUNDATION, priority 2022, published 2025):

Tested on: C. albicans SC5314
Experiment: Surface adhesion of C. albicans with simultaneous LreLTA and Hsp70 inhibitor VER-155008, crystal violet staining
Assay type: cell-based, Candida albicans
Settings: SC5314 1×10^4 CFU/mL; LreLTA 30 μg/mL plus VER-155008 1, 10, 50 and 100 μM simultaneously; 24 hours; FIG. 4
Protocol: According to previous research, Hsp70 is known to play a role in controlling overall virulence factors and drug resistance in C. albicans, and thus, the inventors of the present disclosure conducted experiments by utilizing VER-155008, which is an Hsp70 inhibitor.
In order to determine the effect of VER-155008 on reducing C. albicans surface adhesion by LreLTA, C. albicans SC5314 strain was cultured in YPD medium and prepared at 1×10^4 CFU/mL, and LreLTA at a single concentration of 30 μg/mL and VER-155008 at concentrations of 1, 10, 50 and 100 μM were simultaneously treated. After culturing for 24 hours, the degree of adhesion maintenance to the surface was compared by 0.1% crystal violet staining.

For `N#Cc1ccc(COC[C@H]2O[C@@H](n3c(NCc4ccc(Cl)c(Cl)c4)nc4c(N)ncnc43)[C@H](O)[C@@H]2O)cc1` [VER-155008], the “effect on the surface adhesion reducing efficacy of LreLTA” value was “the efficacy of reducing the surface adhesion of LreLTA was decreased”.
